Experimental data published in US20220331257A1, “LIQUID PHARMACEUTICAL COMPOSITIONS WITH STABLE DRUG RELEASE PROFILES” (Avadel Legacy Pharmaceuticals, LLC, priority 2019, published 2022).

Key:
[1] = Solubility of drugs in water (saturated solutions); conditions: saturated solution in water
[2] = Osmolality of osmotic agent solutions (external phase); type: physicochemical; conditions: for Osmolality (extrapolated): third order polynomial fit
From the text: In these attempts, the osmolality ratio of the composition was greater than 1 (measured at ambient temperature using a vapor pressure osmometer (model Vapro 5600 XR from ELITech/WESCOR) with a measurement range from 20 mosmol/kg to 3500 mosmol/kg).
To determine the osmolality of the external phase of the compositions, it was assumed that only the osmotic agent contributed to the external phase's osmolality because, in addition to the osmotic agent, the external phase contained only minimal amounts of the suspending agent (e.g., 0.1-0.2 wt %). Measurements were obtained experimentally up to 40 wt % sorbitol and up to 50 wt % maltitol and then extrapolated to 60 wt % using a fit with a third order polynomial form (Table 2). Measurements were also obtained for a commercially available sorbitol solution, NEOSORB® 70/70B, containing 70% of dry substance and a minimum of 74% sorbitol in the dry substance (Table 2).

[3] = Saturation of the continuous phase by the drug; type: physicochemical; conditions: continuous phase 60 wt % maltitol, 0.2 wt % xanthan gum, about pH 7.2
Experimental: A “continuous phase” or “liquid phase” as used herein, refers to the fluid or liquid phase of the suspension in which the particles are dispersed. The continuous phase may not be saturated by the drug. “Not saturated by the drug” as used herein refers to the amount of drug in the continuous phase being less than the amount at which the continuous phase is saturated with the drug at the temperature at which the saturation is measured. The temperature at which saturation is measured corresponds to the temperature at which stability is performed. In an example, saturation is measured at 30° C.

[4] = Osmolality of saturated solutions of drugs in water (vapor pressure osmometer); type: physicochemical

Row | SMILES | Solubility ([1]; 25° C.) | Osmolality (experimental) ([2]; dry matter content 10% (wt %)) | Osmolality (extrapolated) ([2]; dry matter content 10% (wt %)) | Osmolality (experimental) ([2]; dry matter content 20% (wt %)) | Osmolality (extrapolated) ([2]; dry matter content 20% (wt %)) | Osmolality (experimental) ([2]; dry matter content 30% (wt %)) | Osmolality (extrapolated) ([2]; dry matter content 30% (wt %)) | Osmolality (experimental) ([2]; dry matter content 40% (wt %)) | Osmolality (extrapolated) ([2]; dry matter content 40% (wt %)) | Osmolality (extrapolated) ([2]; dry matter content 50% (wt %)) | Osmolality (extrapolated) ([2]; dry matter content 60% (wt %)) | Osmolality of saturated solution ([4]; 25° C.) | further results
1 | CC(=O)Oc1ccccc1C(=O)O [Aspirin, aspirin] | 2.5 mg/g | – | – | – | – | – | – | – | – | – | – | – | –
2 | OC[C@@H](O)[C@@H](O)[C@H](O)[C@@H](O)CO [Sorbitol, sorbitol] | – | 599 mOsm/kg sol | 610 mOsm/kg | 1376 mOsm/kg sol | 1364 mOsm/kg | 2407 mOsm/kg sol | 2426 mOsm/kg | 4125 mOsm/kg sol | 4122 mOsm/kg | 6816 mOsm/kg | 10777 mOsm/kg | – | Osmolality (experimental) ([2]; dry matter content 5% (wt %)): 276 mOsm/kg sol; Osmolality (extrapolated) ([2]; dry matter content 5% (wt %)): 269 mOsm/kg; Osmolality (experimental) ([2]; dry matter content 15% (wt %)): 954 mOsm/kg sol; Osmolality (extrapolated) ([2]; dry matter content 15% (wt %)): 960 mOsm/kg; Osmolality (experimental) ([2]; dry matter content 25% (wt %)): 1844 mOsm/kg sol; Osmolality (extrapolated) ([2]; dry matter content 25% (wt %)): 1830 mOsm/kg
3 | COc1ccccc1OCC(O)CO (centres unmarked) [guaifenesin] | – | – | – | – | – | – | – | – | – | – | – | – | saturation of the continuous phase by the drug [3]: 15.3 mg/g
4 | OC[C@@H](O)[C@@H](O[C@H]1O[C@H](CO)[C@@H](O)[C@H](O)[C@H]1O)[C@H](O)[C@@H](O)CO [maltitol] | – | 333 mOsm/kg sol | 330 mOsm/kg | 779 mOsm/kg sol | 791 mOsm/kg | 1340 mOsm/kg sol | 1322 mOsm/kg | 2265 mOsm/kg sol | 2277 mOsm/kg | 3879 mOsm/kg | 6538 mOsm/kg | – | Osmolality (experimental) ([2]; dry matter content 50% (wt %)): 3882 mOsm/kg sol
5 | Cc1ccc(=O)n(-c2ccccc2)c1 [Pirfenidone, pirfenidone] | 18 mg/g | – | – | – | – | – | – | – | – | – | – | 84 mosmol/kg | –
6 | CC(=O)Nc1ccc(O)cc1 [Acetaminophen, acetaminophen] | 14 mg/g | – | – | – | – | – | – | – | – | – | – | 74 mosmol/kg | Osmolality of saturated solution ([4]; 40° C.): 112 mosmol/kg; Solubility ([1]; 40° C.): 20 mg/g
